Measured values: PMC11952493 (bioRxiv, 2025)
Where no end group is shown, it is not given here.

Molecular target: T1, Recombinant Human FAPα (Homo sapiens, UniProt Q12884)
T1 sequence (Q12884 1-760): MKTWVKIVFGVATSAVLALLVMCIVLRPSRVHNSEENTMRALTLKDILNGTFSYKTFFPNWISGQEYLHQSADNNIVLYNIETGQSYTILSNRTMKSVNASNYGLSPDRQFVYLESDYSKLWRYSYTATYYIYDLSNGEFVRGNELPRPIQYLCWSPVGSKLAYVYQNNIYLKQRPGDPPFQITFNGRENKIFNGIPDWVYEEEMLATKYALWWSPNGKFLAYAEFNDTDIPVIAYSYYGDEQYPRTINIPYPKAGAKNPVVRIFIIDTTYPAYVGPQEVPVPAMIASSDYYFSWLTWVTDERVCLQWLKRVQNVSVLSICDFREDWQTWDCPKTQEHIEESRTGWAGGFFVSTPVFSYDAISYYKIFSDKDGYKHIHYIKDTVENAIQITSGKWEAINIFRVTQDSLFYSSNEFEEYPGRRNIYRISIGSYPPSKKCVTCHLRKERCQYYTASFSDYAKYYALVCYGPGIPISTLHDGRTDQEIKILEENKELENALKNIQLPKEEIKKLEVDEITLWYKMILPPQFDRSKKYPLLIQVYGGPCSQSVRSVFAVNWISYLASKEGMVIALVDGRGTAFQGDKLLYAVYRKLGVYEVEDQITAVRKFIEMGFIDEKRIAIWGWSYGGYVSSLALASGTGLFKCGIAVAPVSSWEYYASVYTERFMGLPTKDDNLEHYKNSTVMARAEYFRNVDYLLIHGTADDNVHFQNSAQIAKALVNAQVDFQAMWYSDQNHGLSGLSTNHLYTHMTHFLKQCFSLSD
Test: Fluorogenic substrate cleavage assay with FAPα
Assay type: biochemical
Conditions: 200 μM substrate, 37°C; 10 nM FAPα, 2 nM DPP4, 6 nM DPP9, 3-6 nM PREP

Row | selectivity for FAPα over DPP4, DPP9 and PREP (in words) | Sequence
1 | highest specificity | AACSFRINSLCG (also: sidechain bridge or staple (positions not given here)) [FAP-24]
2 | highest specificity | AACVSFQNLDCG (also: sidechain bridge or staple (positions not given here)) [FAP-33]
